Common to all, as to format: cell-based
One assay has as its system LN18 MTAP(-/-) cells. Put plainly: Inhibition of proliferation of LN18 MTAP(-/-) cells (CellTiter-Glo). Particulars: cell proliferation, 7 days. As for the experimental part: Test 5: Assay for Inhibitory Activity of Compounds against LN18 MTAP(-/-) Cell Proliferation
Materials and Cells: The LN18 MTAP(-/-) cell line was provided by Cobioer Biosciences (China). Cell culture media, fetal bovine serum (FBS), and penicillin-streptomycin were purchased from Thermo Fisher Scientific (USA). 384-well plates were purchased from PerkinElmer (USA). The CellTiter-Glo assay kit was purchased from Promega (USA).
Cell Culture: LN18 MTAP(-/-) cells were cultured in a medium supplemented with 10% fetal bovine serum (FBS) and 1% penicillin-streptomycin at 37°C with 5% CO2. Only cells in the logarithmic growth phase were used for experiments.
(§1) Cell Proliferation Inhibition Assay: The antiproliferative activity of the compounds against LN18 MTAP(-/-) cells was assessed using the CellTiter-Glo assay kit. Cell suspensions were adjusted to the appropriate density and seeded into 384-well plates at a volume of 40 µL per well, then incubated overnight at 37°C with 5% CO2. Compounds (40 nL) were added to each well to achieve final concentrations ranging from 0 to 1,000 nM (starting concentration 1,000 nM, 3-fold serial dilutions, 9 dose points), with a final DMSO concentration of […]. The cell plates were incubated at 37°C with 5% CO2 for 7 days. Subsequently, 40 µL of CellTiter-Glo reagent was added to measure cell viability.
For orientation: Cellular ATP, detected with luciferase, serves as a proxy for viable cell number.

Assay [1] has as its system LN18 MTAP-overexpressing cells. Put plainly: Inhibition of proliferation of LN18 MTAP-overexpressing cells (CellTiter-Glo). The note with it: cell proliferation, 7 days.
Text: Test 6: Assay for Inhibitory Activity of Compounds against LN18 MTAP-Overexpressing Cell Proliferatio
Materials and Cells: The LN18 MTAP-overexpressing cell line was purchased from Cobioer Biosciences (China). Cell culture media, fetal bovine serum (FBS), and penicillin-streptomycin were purchased from Thermo Fisher Scientific (USA). 384-well plates were purchased from PerkinElmer (USA). The CellTiter-Glo assay kit was purchased from Promega (USA).
Cell Culture: LN18 MTAP-overexpressing cells were cultured in a medium supplemented with 10% fetal bovine serum (FBS) and 1% penicillin-streptomycin at 37°C with 5% CO2. Only cells in the logarithmic growth phase were used for experiments.
as §1, with “MTAP-overexpressing” for “MTAP(-/-)”, “10,000” for “1,000”

The test system of the next assay is U87MG MTAP(-/-) cells. Put plainly: Inhibition of proliferation of U87MG MTAP(-/-) cells (CellTiter-Glo). The note with it: Homo sapiens, U-87 MG, 144 h, cell proliferation, 6 days. In outline: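 U87MG MTAP(-/-) cells in log phase, seeded overnight, then exposed 6 days at 37 °C, 5% CO2 to compound at 10,000 nM top, 3-fold dilutions, 10 points, 0.5% DMSO final. Viability read by CellTiter-Glo luminescence.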

For the next assay, the system named is Ht 1080. Put plainly: Mini cell panel: inhibition of proliferation of Ht 1080 cells. From the text: (§2) Test 9: Mini Cell Panel: Assay for Inhibitory Activity of Compounds against Proliferation of 20 Tumor Cell Lines
Materials and Cells: Fifteen MTAP(-/-) cell lines and five MTAP wild-type cell lines were purchased from ATCC (USA). Cell culture media, fetal bovine serum (FBS), and penicillin-streptomycin were purchased from Thermo Fisher Scientific (USA). 384-well plates were purchased from PerkinElmer (USA). The CellTiter-Glo assay kit was purchased from Promega (USA). […]

A further assay has as its system MKN-45. Put plainly: Mini cell panel: inhibition of proliferation of MKN-45 cells.
Text: as §2
(§3) Materials and Cells: Fifteen MTAP(-/-) cell lines and five MTAP wild-type cell lines were purchased from ATCC (USA). Cell culture media, fetal bovine serum (FBS), and penicillin-streptomycin were purchased from Thermo Fisher Scientific (USA). 384-well plates were purchased from PerkinElmer (USA). The CellTiter-Glo assay kit was purchased from Promega (USA). Paclitaxel was used as the control compound.

The subject of another assay is LU99. Put plainly: Mini cell panel: inhibition of proliferation of LU99 cells.
Text: as §2, §3

The test system of a further assay is Calu-1. Put plainly: Mini cell panel: inhibition of proliferation of Calu-1 cells.
Text: as §2, §3

The next assay has as its system SU-DHL-10. Put plainly: Mini cell panel: inhibition of proliferation of SU-DHL-10 cells.
Text: as §2, §3

Another assay has as its system SU-DHL-4. Put plainly: Mini cell panel: inhibition of proliferation of SU-DHL-4 cells.
Text: as §2, §3

In the next assay the test system is Aspc-1. Put plainly: Mini cell panel: inhibition of proliferation of Aspc-1 cells.
Text: as §2, §3

For the next assay, the system named is CFPAC-1. Put plainly: Mini cell panel: inhibition of proliferation of CFPAC-1 cells.
Text: as §2, §3

Assay [2] relates to five MTAP wild-type cell lines. Put plainly: Mini cell panel: summary over the MTAP wild-type cell lines.
Text: as §2, §3

The mark [3] stands for this setting: Homo sapiens, HT-1080, MTAP (-/-).
The mark [4] stands for this setting: Homo sapiens, MKN-45, MTAP (-/-).
Setting [5] is: Homo sapiens, Lu-99, MTAP (-/-).
[6] abbreviates: Homo sapiens, Calu-1, MTAP Wild type.
The mark [7] stands for this setting: Homo sapiens, SU-DHL10, MTAP Wild type.
Setting [8] is: Homo sapiens, SU-DHL-4, MTAP Wild type.
The mark [9] stands for this setting: Homo sapiens, ASPC1, MTAP Wild type.
Setting [10] is: Homo sapiens, CFPAC-1, MTAP Wild type.
Setting [11] is: read-out: median IC50, MTAP wild-type cells.
Setting [12] is: span over the cell lines, read-out: IC50 values (range) against MTAP wild-type cells.

IC50 data for five compounds are collected here from patent EP4775208A1, “USE OF PRMT5 INHIBITOR IN TREATMENT OF TUMORS OR CANCERS” (Apeiron Therapeutics (Hong Kong) Ltd., priority 2023, dated 2025).

Where two headings read alike, the source gives them in different places.

In general, IC50 refers to the concentration that gives 50% inhibition.

On to `CN(C(=O)c1cc2c(cn1)nc(N)c1cncn12)[C@@H]1COc2cc(C(F)(F)F)ccc21` [Example 4, (S)-4-amino-N-methy 1-N-(6-(trifluoromethy 1)-2,3-dihydrobenzofuran-3-yl)imidazo[1,5-a]pyrido[3,4-e]pyrazine-8-carboxamide], for which the IC50 in the assay with LN18 MTAP(-/-) cells (Homo sapiens, LN-18, 168 h) came to 7.85 nM; in assay [1] (Homo sapiens, LN-18, 168 h), 868 nM; in the assay with U87MG MTAP(-/-) cells, 93.1 nM; in the assay on Ht 1080 (setting [3]), 2.4 nM; with MKN-45 (setting [4]), 17.8 nM; with LU99 (setting [5]), 21.8 nM. Further, the half-maximal inhibitory concentration (IC50) with Calu-1 (setting [6]) was found to be 3370 nM; with SU-DHL-10 (setting [7]) it was 1300 nM; in the assay with SU-DHL-4 (setting [8]), 1260 nM; with Aspc-1 (setting [9]), 6600 nM; in the assay on CFPAC-1 (setting [10]), 407 nM; in assay [2] (setting [11]), 1710 nM. Moreover, the 50% inhibitory concentration (IC50) in assay [2] (setting [12]) fell in the range of 407 to 6600 nM.

With `[2H]C([2H])([2H])N(C(=O)c1ccc2nc(N)c3cncn3c2c1)[C@@H]1COc2cc(C(F)(F)F)ccc21` [Example 16, (S)-4-amino-N-(methyl-d3)-N-(6-(trifluoromethyl)-2,3-dihydrobenzofuran-3-yl)imidaz o[1,5-a]quinoxaline-8-carboxamide], the half-inhibitory concentration (IC50) is 6.57 nM with LN18 MTAP(-/-) cells (Homo sapiens, LN-18, 168 h); 1200 nM in assay [1] (Homo sapiens, LN-18, 168 h); 70.8 nM with U87MG MTAP(-/-) cells.

In the case of `[2H]C([2H])([2H])N(C(=O)c1cc2c(cc1F)nc(N)c1cncn12)[C@@H]1COc2cc(C(F)(F)F)ccc21` [Example 41, (S)-4-amino-7-fluoro-N-(methyl-d3)-N-(6-(trifluoromethyl)-2,3-di hydrobenzofuran-3-yl)imidazo[1,5-a]quinox aline-8-carboxamide], the half-maximal inhibitory concentration (IC50) came to 14.5 nM in the assay on LN18 MTAP(-/-) cells (Homo sapiens, LN-18, 168 h); 1970 nM in [1] (Homo sapiens, LN-18, 168 h); 58.5 nM in the assay on U87MG MTAP(-/-) cells.

With “(S)-4-amino-7-fluoro-N-methyl-N-(6-(triflu oromethyl)-2,3-dihydr obenzofuran-3-yl)imi dazo[1,5-a]quinoxalin e-8-carboxamide [Example 29]”, the half-maximal inhibitory concentration (IC50) with LN18 MTAP(-/-) cells is 5.42 nM; in assay [1] it was 812 nM; with Ht 1080 (MTAP (-/-)), 36.7 nM; in the assay with MKN-45 (MTAP (-/-)), 39.8 nM; in the assay with LU99 (MTAP (-/-)) it was 37.4 nM; in the assay with Calu-1 (MTAP Wild type), 2300 nM. Also, the IC50 with SU-DHL-10 (MTAP Wild type) is 1590 nM; with SU-DHL-4 (MTAP Wild type), above 10000 nM; in the assay with Aspc-1 (MTAP Wild type) it was above 10000 nM; in the assay with CFPAC-1 (MTAP Wild type) it was 1060 nM; in assay [2] (setting [11]), 3300 nM.

In the case of `CN(C(=O)c1ccc2nc(N)c3cncn3c2c1)[C@@H]1COc2cc(C(F)(F)F)ccc21` [Example 107, (S)-4-amino-N-methy 1-N-(6-(trifluoromethy 1)-2,3-dihydrobenzofuran-3-yl)imidazo[1,5-a]quinoxaline-8-carboxamide], the IC50 is 11.1 nM in the assay with LN18 MTAP(-/-) cells (Homo sapiens, LN-18, 168 h); 1370 nM in [1] (Homo sapiens, LN-18, 168 h); 111 nM in the assay on U87MG MTAP(-/-) cells; 10.4 nM with Ht 1080 (setting [3]); 43.1 nM in the assay with MKN-45 (setting [4]); 39.6 nM in the assay with LU99 (setting [5]). Besides, the IC50 with Calu-1 (setting [6]) is above 10000 nM; in the assay on SU-DHL-10 (setting [7]) it was 1700 nM; with SU-DHL-4 (setting [8]) it was 3100 nM; with Aspc-1 (setting [9]), above 10000 nM; with CFPAC-1 (setting [10]) it was 781 nM; in assay [2] (setting [11]), 3330 nM. In addition, in assay [2] (setting [12]), the IC50 is at least 781 nM.
